Assay results published in patent US20250186453A1, “COMBINATION THERAPIES COMPRISING A SOS1 INHIBITOR AND A MEK INHIBITOR” (Mirati Therapeutics, Inc., priority 2022, published 2025).

Tests used:
[1] = test system: NCI-H1435 cells harboring NF1 K615N mutation; assay: NCI-H1435 tumor xenograft model, SOS1 inhibitor - MEK inhibitor combination; format: in vivo, nude/nude mice; conditions: for tumor growth inhibition: NCI-H1435 tumors, day 27, single agent, MRTX0902 50 mg/kg twice daily, VS-6766 0.3 mg/kg twice daily Monday, Wednesday, Friday; for Average Tumor Volumes of NCI-H1435 Tumor Bearing Mice: p.o., MRTX0902 50 mg/kg BID, VS-6766 0.3 mg/kg BID MWF (Q2D), mean of 5 mice
Description: (§1) Immunocompromised nude/nude mice are inoculated in the right hind flank with NCI-H1435 cells harboring NF1 K615N mutation. When tumor volumes reach approximately 150 mm3 in size, the mice are divided into four groups of 5 mice each. The first group is administered vehicle only. […] The fourth group is administered a single agent dose of the SOS1 inhibitor in combination with a single agent dose of the MEK inhibitor. The treatment period was 27 days. Tumor volumes are measured using a caliper every two—three days and tumor volumes are calculated by the formula: 0.5×(Length×Width)2.
20 nude/nude mice were inoculated in the right hind limb with 5×10^6 NCI-H1435 cells. When tumor volume reached ˜150 mm3 (Study Day 0), 5 mice in each of the four groups were administered p.o. daily for 27 days: vehicle only (0.5% MC (4000 cps)/0.2% Tween80 in water), 50 mg/kg BID of the SOS1 inhibitor (R)-2-methyl-3-(1-((4-methyl-7-morpholinopyrido[3,4-d]pyridazin-1-yl)amino)ethyl)benzonitrile (MRTX0902) (0.5% MC (4000 cps)/0.2% Tween80 in water), 0.3 mg/kg BID Q2D of MEK inhibitor VS-6766 (5% DMSO, 10% HPCD in water), or 50 mg/kg BID MRTX0902 and 0.3 mg/kg BID Q2D VS-6766. Tumor volumes, measured at pre-specified days, for the five mice per group were averaged and are reported for NCI-H1435 cells in Table 2 and FIG. 2.

[2] = test system: LN229 cells harboring the A72S mutation (PTPN11 A72S); assay: LN229 tumor xenograft model, SOS1 inhibitor - MEK inhibitor combination; format: in vivo, nude/nude mice; conditions: for tumor growth inhibition: LN229 tumors, day 28, single agent, MRTX0902 50 mg/kg twice daily, VS-6766 0.3 mg/kg twice daily Monday, Wednesday, Friday; for Average Tumor Volumes of LN229 Tumor Bearing Mice: p.o., MRTX0902 50 mg/kg BID, VS-6766 0.3 mg/kg BID MWF (Q2D), mean of 5 mice
Description: as §1, with “with LN229” for “with NCI-H1435”, “harboring the A72S” for “harboring NF1 K615N”, “administered the” for “administered a”, “with the” for “with a”, “was 28” for “was 27”
[0153]20 nude/nude mice were inoculated in the right hind limb with 5×10^6 LN229 cells. When tumor volume reached ˜150 mm3 (Study Day 0), 5 mice in each of the four groups were administered p.o. daily for 28 days: vehicle only (0.5% MC (4000 cps)/0.2% Tween80 in water), 50 mg/kg BID of the SOS1 inhibitor (R)-2-methyl-3-(1-((4-methyl-7-morpholinopyrido[3,4-d]pyridazin-1-yl)amino)ethyl)benzonitrile (MRTX0902) (0.5% MC (4000 cps)/0.2% Tween80 in water), 0.3 mg/kg BID Q2D of MEK inhibitor VS-6766 (5% DMSO, 10% HPCD in water), or 50 mg/kg BID MRTX0902 and 0.3 mg/kg BID Q2D. Tumor volumes, measured at pre-specified days, for the five mice per group were averaged and are reported for LN229 cells in Table 1 and FIG. 1.

Structure (SMILES) | tumor growth inhibition [1] [%] | Average Tumor Volumes of NCI-H1435 Tumor Bearing Mice ([1]; Study Day 0 (start of dosing)) [mm^3] | Average Tumor Volumes of NCI-H1435 Tumor Bearing Mice ([1]; Study Day 3) [mm^3] | Average Tumor Volumes of NCI-H1435 Tumor Bearing Mice ([1]; Study Day 6) [mm^3] | Average Tumor Volumes of NCI-H1435 Tumor Bearing Mice ([1]; Study Day 10) [mm^3] | Average Tumor Volumes of NCI-H1435 Tumor Bearing Mice ([1]; Study Day 13) [mm^3] | Average Tumor Volumes of NCI-H1435 Tumor Bearing Mice ([1]; Study Day 17) [mm^3] | Average Tumor Volumes of NCI-H1435 Tumor Bearing Mice ([1]; Study Day 20) [mm^3] | Average Tumor Volumes of NCI-H1435 Tumor Bearing Mice ([1]; Study Day 24) [mm^3] | Average Tumor Volumes of NCI-H1435 Tumor Bearing Mice ([1]; Study Day 27) [mm^3] | tumor growth inhibition [2] [%] | Average Tumor Volumes of LN229 Tumor Bearing Mice ([2]; Study Day 0 (start of dosing)) [mm^3] | Average Tumor Volumes of LN229 Tumor Bearing Mice ([2]; Study Day 4) [mm^3] | Average Tumor Volumes of LN229 Tumor Bearing Mice ([2]; Study Day 7) [mm^3] | Average Tumor Volumes of LN229 Tumor Bearing Mice ([2]; Study Day 12) [mm^3] | Average Tumor Volumes of LN229 Tumor Bearing Mice ([2]; Study Day 15) [mm^3] | Average Tumor Volumes of LN229 Tumor Bearing Mice ([2]; Study Day 18) [mm^3] | Average Tumor Volumes of LN229 Tumor Bearing Mice ([2]; Study Day 25) [mm^3] | Average Tumor Volumes of LN229 Tumor Bearing Mice ([2]; Study Day 28) [mm^3]
Cc1c(C#N)cccc1[C@@H](C)Nc1nnc(C)c2cnc(N3CCOCC3)cc12 [MRTX0902, (R)-2-methyl-3-(1-((4-methyl-7-morpholinopyrido[3,4-d]pyridazin-1-yl)amino)ethyl)benzonitrile] | 49.8 | 164 | 241 | 292 | 333 | 417 | 437 | 474 | 583 | 608 | 37.6 | 151 | 174 | 199 | 248 | 310 | 374 | 462 | 525
CNS(=O)(=O)Nc1nccc(Cc2c(C)c3ccc(Oc4ncccn4)cc3oc2=O)c1F [VS-6766, 3-[[3-fluoro-2-(methylsulfamoylamino)pyridin-4-yl]methyl]-4-methyl-7-pyrimidin-2-yloxychromen-2-one] | 76.4 | 166 | 254 | 296 | 307 | 281 | 286 | 322 | 349 | 371 | 92.5 | 151 | 143 | 137 | 120 | 140 | 186 | 225 | 196
